Data on 36 sequences can be found in US12473533B2, “Gene targets for T-cell-based immunotherapy” (The Regents of the University of California, priority 2018, dated 2025).

This series deals with primary human T cells. Briefly: Genome-wide SLICE pooled CRISPR screen: CFSE-sorted proliferation after TCR stimulation. It counts as cell-based. The conditions noted are these: log2 fold-change of sgRNA, dividing over non-dividing cells; positive hits from GW screen. The text has this:
To take full advantage of this platform, we scaled-up from the targeted pilot screen to genome-wide (GW) scale (Doench et al., 2016), transducing a library of 77,441 sgRNAs (19,114 genes) into T cells from two healthy donors. After confirming successful transduction of these primary human T cells (FIG. 8,A-B), the cells were re-stimulated and then FACS sorted into non-proliferating and highly-proliferating populations based on CFSE levels (FIG. 8C and Experimental Procedures). MAGeCK software (Li et al., 2014) was used to systematically identify genes that are positively or negatively selected in the proliferating population of T cells. Top positive and negative regulators from the pilot screen were confirmed in both biological replicates of the GW screen along with numerous other hits (FIG. 2A, B). To hone the list of top candidates, we performed an independent secondary screen in cells from two additional human blood donors. The results were well correlated between the primary and secondary screens (FIG. 2C). Furthermore, integrated analysis of the two independent screens performed on a total of four human blood donors provided improved power for target discovery, particularly for negative regulators of T cell proliferation (FIG. 8D). To confirm that hits are in fact dependent on TCR stimulation, we performed GW screens with increasing levels of TCR stimulation. […] The observed dose-response confirmed that the majority of the screen hits are dependent on the TCR stimulus and serve to tune resulting proliferative responses. Taken together these screens identified dozens of genetic perturbations that positively and negatively modulate T cell proliferation.
24 hours post stimulation, lentivirus was added directly to cultured T cells at a 1:300 v/v ratio and gently mixed by tilting. Following 24 hours, cells were collected, pelleted, and resuspended in Lonza electroporation buffer P3 (Lonza, Cat #V4XP-3032) at 20e6 cells/100 μl. Next, Cas9 protein (MacroLab, Berkeley, 40 μM stock) was added to cell suspension at 1:10 v/v ratio. Cells were electroporated at 20e6 cells per cuvette using the pulse code EH115 (Lonza, cat #VVPA-1002). The total number of cells for electroporation was scaled as required. Immediately after electroporation, 1 mL of pre-warmed media was added to each cuvette and cuvettes were placed at 37 degrees for 20 minutes. Cells were then transferred to culture vessels in X-Vivo media containing 50 U/ml IL-2 at 1e6 cells/ml in appropriate tissue culture vessels. Cells were expanded every two days, adding fresh media with IL-2 at 50 U/ml and maintaining the cell density at 1e6 cells/ml.
Cultured cells were collected, spun, washed with PBS, and then resuspended at 1-10 million cells/ml in PBS. CFSE (Biolegend, Cat #423801) was prepared per the manufacturer's protocol to make a 5 mM stock solution in DMSO. This stock solution was diluted 1:1000 in PBS for a 5 μM working solution, and then added in a 1:1 v/v ratio to cell suspension. After mixing, cells were incubated for 5 minutes in the dark at room temperature. The stain was then quenched with a volume of media that was at least 5× the stain volume (e.g. 2 ml+10 ml), and incubated for one minute at room temperature in the dark. Cells were then spun down and resuspended in media prior to restimulation.
PBMCs from multiple human healthy human donors were isolated from TRIMA residuals (see methods). TRIMA residuals were purchased from Blood Centers of the Pacific. After CD8 T cells isolation as above (Day 0), cells were rested in X-Vivo media overnight and then stimulated with plate-bound anti-human CD3/CD28 and IL-2 at 50 U/mL the following day (Day 1). 24 hours after stimulation (Day 2), cells were transduced with concentrated lentivirus encoding the pooled sgRNA library (see methods). […] after transduction (Day 3), cells were electroporated with CAS9 protein (methods). […]
On to “CAGCACTAGCAGTGGCACGG (chemistry not given here) [SEQ ID NO: 15, sgRNA targeting DGKA]”, for which the “LFC (~effect magnitude)” value came to 0.722.

In the case of “GGGCCCCCAGTAGAATCCGC (listed as DNA, chemistry not fully specified) [SEQ ID NO: 29, sgRNA targeting SOCS1]”, the “LFC (~effect magnitude)” value was 1.2551.

On to “GAGCAGCGGCTGTACAAGGT (listed as DNA, chemistry not fully specified) [SEQ ID NO: 32, sgRNA targeting TCEB2]”, for which the “LFC (~effect magnitude)” value worked out at 1.0955.

In the case of “CGAAAAAGCAGTTCCGCTGG (listed as DNA, chemistry not fully specified) [SEQ ID NO: 30, sgRNA targeting SOCS1]”, the “LFC (~effect magnitude)” value was determined as 0.6088.

Regarding “TGAGGAGTACAAGCACCGCA (listed as DNA, chemistry not fully specified) [SEQ ID NO: 35, sgRNA targeting TMEM222]”, the “LFC (~effect magnitude)” value came to 1.3341.

“CAAGTACCGACGCGCCAGCG (listed as DNA, chemistry not fully specified) [SEQ ID NO: 23, sgRNA targeting MEF2D]”: the “LFC (~effect magnitude)” value worked out at 0.7255.

As for “CCAGTACAAACCCCAGAACG (listed as DNA, chemistry not fully specified) [SEQ ID NO: 40, sgRNA targeting UBASH3A]”, the “LFC (~effect magnitude)” value was 0.6566.

With “GCAGGAAGACCGGCACGAAG (listed as DNA, chemistry not fully specified) [SEQ ID NO: 11, sgRNA targeting CD8A]”, the “LFC (~effect magnitude)” value is 0.6365.

In the case of “CCACTTGTTAACAGAGACCG (listed as DNA, chemistry not fully specified) [SEQ ID NO: 38, sgRNA targeting TNFAIP3]”, the “LFC (~effect magnitude)” value came to 0.633.

For “AGAGCATTATGGGCAGACAG (listed as DNA, chemistry not fully specified) [SEQ ID NO: 22, sgRNA targeting GNA13]”, the “LFC (~effect magnitude)” value amounted to 0.3825.

Consider “TTAGCATCAAGGCATGCCAT (listed as DNA, chemistry not fully specified) [SEQ ID NO: 26, sgRNA targeting RASA2]”, for which the “LFC (~effect magnitude)” value is 0.7258.

For the sequence “AGTTCTACTACAGACCCCCG (chemistry not given here) [SEQ ID NO: 12, sgRNA targeting CDKN1B]”, the “LFC (~effect magnitude)” value is on record as 0.8623.

Take “CATCATCCCTCACGGACCCG (listed as DNA, chemistry not fully specified) [SEQ ID NO: 24, sgRNA targeting MEF2D]”: the “LFC (~effect magnitude)” value is recorded as 0.46.

Regarding “CTCTCCTCAGTACCACAGCA (listed as DNA, chemistry not fully specified) [SEQ ID NO: 19, sgRNA targeting DGKZ]”, the “LFC (~effect magnitude)” value turned out to be 0.6587.

For the sequence “AGGTTCCAGGTCCGATCCAG (listed as DNA, chemistry not fully specified) [SEQ ID NO: 10, sgRNA targeting CD8A]”, the “LFC (~effect magnitude)” value was determined as 0.8084.

On to “GAGAACCTCGGAACATACGG (listed as DNA, chemistry not fully specified) [SEQ ID NO: 28, sgRNA targeting SMARCB1]”, for which the “LFC (~effect magnitude)” value stood at 0.6271.

As to “GACTCACTGAGACAAAGTAG (listed as DNA, chemistry not fully specified) [SEQ ID NO: 36, sgRNA targeting TMEM222]”, the “LFC (~effect magnitude)” value was found to be 0.8727.

Turning to “CCCCGTGCAGCGAGTCAGAG (listed as DNA, chemistry not fully specified) [SEQ ID NO: 18, sgRNA targeting DGKZ]”, the “LFC (~effect magnitude)” value turned out to be 0.4938.

On to “CTTGGCGTCCGTGAAGATGG (listed as DNA, chemistry not fully specified) [SEQ ID NO: 33, sgRNA targeting TCEB2]”, for which the “LFC (~effect magnitude)” value was determined as 0.6135.

On to “CTCCCAAACTGACCTCTAGG (listed as DNA, chemistry not fully specified) [SEQ ID NO: 16, sgRNA targeting DGKA]”, for which the “LFC (~effect magnitude)” value is recorded as 0.7081.

As for “GAACGCGCTGAGAGTCCGTG (listed as DNA, chemistry not fully specified) [SEQ ID NO: 3, sgRNA targeting AGO1]”, the “LFC (~effect magnitude)” value is recorded as 0.8318.

For the sequence “CGTGCTGGTGGTTCGCCACG (listed as DNA, chemistry not fully specified) [SEQ ID NO: 39, sgRNA targeting UBASH3A]”, the “LFC (~effect magnitude)” value is 1.0191.

For “CGGCGTGCGAACGGAATGTG (listed as DNA, chemistry not fully specified) [SEQ ID NO: 31, sgRNA targeting SOCS1]”, the “LFC (~effect magnitude)” value was 0.7842.

“TTCCGCAAAATAGAGCCCCA (listed as DNA, chemistry not fully specified) [SEQ ID NO: 6, sgRNA targeting CBLB]”: the “LFC (~effect magnitude)” value is given as 1.5917.

For “TATGCCATGAGTGCTCAGAG (listed as DNA, chemistry not fully specified) [SEQ ID NO: 37, sgRNA targeting TNFAIP3]”, the “LFC (~effect magnitude)” value was found to be 0.651.

Consider “CCTGTACCCGAATAACCATG (listed as DNA, chemistry not fully specified) [SEQ ID NO: 4, sgRNA targeting ARIH2]”, for which the “LFC (~effect magnitude)” value is given as 0.3813.

As for “GGGCAAGTACGAGTGGCAAG (chemistry not given here) [SEQ ID NO: 13, sgRNA targeting CDKN1B]”, the “LFC (~effect magnitude)” value is on record as 0.9886.

With “CCGCTTTCCAGTGACCGACG (listed as DNA, chemistry not fully specified) [SEQ ID NO: 21, sgRNA targeting FIBP]”, the “LFC (~effect magnitude)” value came to 0.5586.

In the case of “AGATATCACACATTACAGTG (listed as DNA, chemistry not fully specified) [SEQ ID NO: 25, sgRNA targeting RASA2]”, the “LFC (~effect magnitude)” value is on record as 0.861.

Regarding “TGGACCACGAAGAGTTAACC (chemistry not given here) [SEQ ID NO: 14, sgRNA targeting CDKN1B]”, the “LFC (~effect magnitude)” value worked out at 0.8112.

“ACGGACATGAAGCAATATCA (listed as DNA, chemistry not fully specified) [SEQ ID NO: 34, sgRNA targeting TMEM222]”: the “LFC (~effect magnitude)” value is reported as 1.0461.

In the case of “GAATAAGATGTTCTACGCCG (listed as DNA, chemistry not fully specified) [SEQ ID NO: 17, sgRNA targeting DGKZ]”, the “LFC (~effect magnitude)” value was 0.6282.

For the sequence “AGGCTCCAGGAATGTCCGCG (listed as DNA, chemistry not fully specified) [SEQ ID NO: 20, sgRNA targeting DGKZ]”, the “LFC (~effect magnitude)” value was 0.4227.

Consider “TGTGGGATGTCGACTCCTAG (chemistry not given here) [SEQ ID NO: 7, sgRNA targeting CBLB]”, for which the “LFC (~effect magnitude)” value turned out to be 0.7876.

As to “TGCACAGAACTATCGTACCA (listed as DNA, chemistry not fully specified) [SEQ ID NO: 5, sgRNA targeting CBLB]”, the “LFC (~effect magnitude)” value is listed as 1.9597.

In the case of “AAGCGTCAAAAGTCTGCCAG (chemistry not given here) [SEQ ID NO: 9, sgRNA targeting CD5]”, the “LFC (~effect magnitude)” value is 0.5512.
